Test [1] has as its target T1, CFTR ΔF508 mutant (Homo sapiens, UniProt P13569, DEL508-508).
T1 construct: expressed in transfected cells; host or cells: CFBE41o- (adenoviral transduction)
Kind of test: YFP-halide influx assay for the CFTR-ΔF508 mutation, gluconate buffer. Format: cell-based. As to conditions: CFBE41o- cells, forskolin 10.67 μM. The gist of the method: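 Channel opening is read as the fall in YFP fluorescence over 7 s following iodide injection, expressed as 1-F/F0 and plotted versus compound concentration to derive EC50. Cells used were CFBE41o- expressing adenoviral ΔF508 CFTR and halide-sensitive YFP, rescued by 24 h at 27 °C or 24 h modulator treatment at 37 °C.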

The target of test [2] is T1, CFTR ΔF508 mutant. Description: YFP-halide influx assay for the CFTR-ΔF508 mutation (384 well, FDSS/μCell). It counts as cell-based. The settings on record: CFBE41o- cells, CFTR-ΔF508, 1×D-PBS, fluorescence after 36 seconds. In outline:
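Potentiator read-out as 1−F/F0, F taken 36 s after iodide addition, EC50 fitted against compound concentration. Cells: CFBE41o- expressing ΔF508 CFTR plus halide-sensitive YFP via adenovirus, rescued by 27 °C for 24 h or 24 h modulator at 37 °C.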

T1 sequence (P13569 with tags, fused parts or gaps DEL508-508): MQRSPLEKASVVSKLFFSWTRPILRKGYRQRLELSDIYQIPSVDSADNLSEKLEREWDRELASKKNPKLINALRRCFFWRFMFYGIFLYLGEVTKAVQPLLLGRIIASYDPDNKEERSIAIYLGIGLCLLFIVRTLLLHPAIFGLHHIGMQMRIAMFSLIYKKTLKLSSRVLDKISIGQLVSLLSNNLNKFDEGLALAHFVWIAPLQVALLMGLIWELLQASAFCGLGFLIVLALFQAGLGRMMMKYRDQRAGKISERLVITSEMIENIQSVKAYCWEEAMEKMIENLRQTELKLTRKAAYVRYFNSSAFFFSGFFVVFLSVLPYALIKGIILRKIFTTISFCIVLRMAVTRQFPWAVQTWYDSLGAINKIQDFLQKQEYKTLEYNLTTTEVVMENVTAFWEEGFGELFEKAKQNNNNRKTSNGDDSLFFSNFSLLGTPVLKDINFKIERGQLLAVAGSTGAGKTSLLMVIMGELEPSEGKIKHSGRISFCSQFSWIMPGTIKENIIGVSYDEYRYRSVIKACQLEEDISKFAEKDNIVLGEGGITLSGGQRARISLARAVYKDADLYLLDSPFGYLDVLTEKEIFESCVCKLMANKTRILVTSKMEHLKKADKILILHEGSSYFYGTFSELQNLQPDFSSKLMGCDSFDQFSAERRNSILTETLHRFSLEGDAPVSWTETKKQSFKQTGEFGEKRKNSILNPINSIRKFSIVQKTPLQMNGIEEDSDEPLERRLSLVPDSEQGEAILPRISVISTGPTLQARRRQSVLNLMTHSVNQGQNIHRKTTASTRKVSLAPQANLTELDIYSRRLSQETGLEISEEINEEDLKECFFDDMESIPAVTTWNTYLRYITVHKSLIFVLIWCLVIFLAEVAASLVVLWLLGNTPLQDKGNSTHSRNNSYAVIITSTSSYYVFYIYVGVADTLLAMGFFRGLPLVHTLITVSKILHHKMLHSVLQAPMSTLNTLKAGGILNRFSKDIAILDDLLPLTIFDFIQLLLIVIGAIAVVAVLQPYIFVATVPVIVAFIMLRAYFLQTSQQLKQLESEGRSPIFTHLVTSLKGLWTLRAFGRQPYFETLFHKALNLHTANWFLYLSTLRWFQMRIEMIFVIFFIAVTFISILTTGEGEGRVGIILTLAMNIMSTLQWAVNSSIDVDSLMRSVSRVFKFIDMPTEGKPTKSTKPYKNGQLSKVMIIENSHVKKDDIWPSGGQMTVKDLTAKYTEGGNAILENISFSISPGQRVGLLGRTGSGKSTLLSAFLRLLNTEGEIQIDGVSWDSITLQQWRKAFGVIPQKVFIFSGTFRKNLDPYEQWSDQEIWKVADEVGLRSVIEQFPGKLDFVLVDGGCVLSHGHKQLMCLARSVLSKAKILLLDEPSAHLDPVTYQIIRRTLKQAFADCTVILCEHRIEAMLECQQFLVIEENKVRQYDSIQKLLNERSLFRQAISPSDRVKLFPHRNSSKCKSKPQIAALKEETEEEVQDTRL

Consider `CCN(C)S(=O)(=O)c1cc(C(N)=O)c(NC(=O)c2ccc(C)s2)s1` [Compound 3, N-(3-carbamoyl-5-(N-ethyl-N-methylsulfamoyl)thiophen-2-yl)-5-methylthiophene-2-carboxamide], for which the values for the EC50 on CFTR ΔF508 mutant [1] and at CFTR ΔF508 mutant [2] were 107 nM and 109 nM, respectively.
Taken in the same sequence, the figures for `CCN(CC)S(=O)(=O)c1cc(C(N)=O)c(NC(=O)c2ccc(C)s2)s1` [Compound 4, N-(3-carbamoyl-5-(N,N-diethylsulfamoyl)thiophen-2-yl)-5-methylthiophene-2-carboxamide] were 94 nM and 135 nM.
Taken in the same sequence, the figures for `Cc1ccc(C(=O)Nc2sc(S(=O)(=O)c3ccccc3)cc2C(N)=O)s1` [Compound 16, N-(3-carbamoyl-5-(phenylsulfonyl)thiophen-2-yl)-5-methylthiophene-2-carboxamide] were 99.7 nM and 187 nM.
As to `NC(=O)c1cc(S(=O)(=O)N2CCCCC2)sc1NC(=O)c1ccn[nH]1` [Compound 36, N-(3-carbamoyl-5-(piperidin-1-ylsulfonyl)thiophen-2-yl)-1H-pyrazole-3-carboxamide], the concentration giving a half-maximal response (EC50) (usually the concentration needed to bring the measured effect to its halfway point) on CFTR ΔF508 mutant [1] stood at 92.3 nM; at CFTR ΔF508 mutant [2], 13.1 nM.
The like results for `Cc1c(S(=O)(=O)c2ccccc2)sc(NC(=O)c2ccccc2F)c1C(N)=O` [Compound 87, 2-(2-fluorobenzamido)-4-methyl-5-(phenylsulfonyl) thiophene-3-carboxamide] were, in that order, 44.1 nM and 84.3 nM.
Taken in the same sequence, the figures for `CCc1cc(C(=O)Nc2sc(S(=O)(=O)c3ccccc3)cc2C(N)=O)n[nH]1` [Compound 95, N-(3-carbamoyl-5-(phenylsulfonyl)thiophen-2-yl)-5-ethyl-1H-pyrazole-3-carboxamide] were 99.4 nM and 101 nM.
Taken in the same sequence, the figures for `Cc1c(S(=O)(=O)c2ccccc2)sc(NC(=O)c2cc[nH]n2)c1C(N)=O` [Compound 101, N-(3-carbamoyl-4-methyl-5-(phenylsulfonyl)thiophen-2-yl)-1H-pyrazole-3-carboxamide] were 20.5 nM and 26.8 nM.
For `CCc1cc(C(=O)Nc2sc(S(=O)(=O)c3ccccc3)c(C)c2C(N)=O)n[nH]1` [Compound 103, N-(3-carbamoyl-4-methyl-5-(phenylsulfonyl)thiophen-2-yl)-5-ethyl-1H-pyrazole-3-carboxamide], the EC50 came out at 38.4 nM on CFTR ΔF508 mutant [1] and 54.6 nM at CFTR ΔF508 mutant [2].
The like results for `NC(=O)c1cc(S(=O)(=O)c2ccc(F)cc2)sc1NC(=O)c1ccn[nH]1` [Compound 109, N-(3-carbamoyl-5-(4-fluorophenylsulfonyl)thiophen-2-yl)-1H-pyrazole-3-carboxamide] were, in that order, 28.6 nM and 28.9 nM.
The like results for `NC(=O)c1cc(S(=O)(=O)c2ccc(F)cc2)sc1NC(=O)c1ccccc1F` [Compound 111, 2-(2-fluorobenzamido)-5-(4-fluorophenylsulfonyl) thiophene-3-carboxamide] were, in that order, 84.3 nM and 199 nM.
Taken in the same sequence, the figures for `NC(=O)c1cc(S(=O)(=O)c2cccc(F)c2)sc1NC(=O)c1cc[nH]n1` [Compound 113, N-(3-carbamoyl-5-(3-fluorophenylsulfonyl)thiophen-2-yl)-1H-pyrazole-3-carboxamide] were 29.2 nM and 5.8 nM.
On to `CCc1cc(C(=O)Nc2sc(S(=O)(=O)c3cccc(F)c3)cc2C(N)=O)n[nH]1` [Compound 114, N-(3-carbamoyl-5-(3-fluorophenylsulfonyl)thiophen-2-yl)-5-ethyl-1H-pyrazole-3-carboxamide], for which the concentration for a half-maximal effect (EC50) at CFTR ΔF508 mutant [1] stood at 90.7 nM; at CFTR ΔF508 mutant [2] it was 102 nM.
The like results for `CCc1cc(C(=O)Nc2sc(S(=O)(=O)c3ccccc3F)cc2C(N)=O)n[nH]1` [Compound 116, N-(3-carbamoyl-5-(2-fluorophenylsulfonyl)thiophen-2-yl)-5-ethyl-1H-pyrazole-3-carboxamide] were, in that order, 59.7 nM and 63.5 nM.
Taken in the same sequence, the figures for `NC(=O)c1cc(S(=O)(=O)c2ccc(F)c(F)c2)sc1NC(=O)c1cc[nH]n1` [Compound 118, N-(3-carbamoyl-5-(3,4-difluorophenylsulfonyl)thiophen-2-yl)-1H-pyrazole-3-carboxamide] were 36 nM and 9.6 nM.
The like results for `CCc1cc(C(=O)Nc2sc(S(=O)(=O)c3ccc(F)c(F)c3)cc2C(N)=O)n[nH]1` [Compound 119, N-(3-carbamoyl-5-(3,4-difluorophenylsulfonyl)thiophen-2-yl)-5-ethyl-1H-pyrazole-3-carboxamide] were, in that order, 78.3 nM and 187 nM.
Consider `CCc1ccccc1S(=O)(=O)c1cc(C(N)=O)c(NC(=O)c2ccccc2F)s1` [Compound 121, 5-(2-ethylphenylsulfonyl)-2-(2-fluorobenzamido) thiophene-3-carboxamide], for which the 50% effective concentration (EC50) at CFTR ΔF508 mutant [1] was 74.9 nM; at CFTR ΔF508 mutant [2], 292 nM.
Taken in the same sequence, the figures for `COC1CCN(S(=O)(=O)c2cc(C(N)=O)c(NC(=O)c3ccccc3F)s2)CC1` [Compound 123, 2-(2-fluorobenzamido)-5-(4-methoxypiperidin-1-ylsulfonyl)thiophene-3-carboxamide] were 76.9 nM and 76.4 nM.
On to `NC(=O)c1cc(S(=O)(=O)N2CCC(F)(F)CC2)sc1NC(=O)C1(O)CC1` [Compound 139, 5-(4,4-difluoropiperidin-1-ylsulfonyl)-2-(1-hydroxycyclopropanecarboxamido) thiophene-3-carboxamide], for which the figures for the concentration giving a half-maximal response (EC50) at CFTR ΔF508 mutant [1] and on CFTR ΔF508 mutant [2] were 114 nM and 55.5 nM, respectively.
The like results for `CN(C1CC1)S(=O)(=O)c1cc(C(N)=O)c(NC(=O)c2ccccc2F)s1` [Compound 152, 5-(N-cyclopropyl-N-methylsulfamoyl)-2-(2-fluorobenzamido)thiophene-3-carboxamide] were, in that order, 82.1 nM and 135 nM.
The like results for `CC(C)N(C)S(=O)(=O)c1cc(C(N)=O)c(NC(=O)c2ccccc2F)s1` [Compound 153, 2-(2-fluorobenzamido)-5-(N-isopropyl-N-methylsulfamoyl) thiophene-3-carboxamide] were, in that order, 46 nM and 46 nM.
On to `CN(C)C1CN(S(=O)(=O)c2cc(C(N)=O)c(NC(=O)c3ccccc3F)s2)C1` [Compound 187, 5-(3-(dimethylamino)azetidin-1-ylsulfonyl)-2-(2-fluorobenzamido)thiophene-3-carboxamide], for which, on CFTR ΔF508 mutant [1], the concentration giving a half-maximal response (EC50) amounted to 1600 nM. That is a single-digit micromolar value.
Still for that read-out and setting: the figure for `NC(=O)c1cc(S(=O)(=O)N2CC3(COC3)C2)sc1NC(=O)c1ccccc1F` [Compound 188, 5-(2-oxa-6-azaspiro[3.3]heptan-6-ylsulfonyl)-2-(2-fluorobenzamido) thiophene-3-carboxamide] is 2100 nM; for `CN(C(c1ccccc1)C(F)(F)F)S(=O)(=O)c1cc(C(N)=O)c(NC(=O)c2cc[nH]n2)s1` (centres unmarked) [Compound 195, N-(3-carbamoyl-5-(N-methyl-N-(2,2,2-trifluoro-phenylethyl)sulfamoyl)thiophen-2-yl)-1H-pyrazole-3-carboxamide] it is 258 nM.
On CFTR ΔF508 mutant [1], `NC(=O)c1cc(S(=O)(=O)c2ccc(F)cc2CO)sc1NC(=O)c1ccccc1F` [Compound 196, 5-(4-fluoro-2-(hydroxymethyl)phenylsulfonyl)-2-(2-fluorobenzamido) thiophene-3-carboxamide] returned an EC50 of 2100 nM. This EC50 is about 8.1-fold higher than that of the compound before.
Still for that read-out and setting: the value for `NC(=O)c1cc(S(=O)(=O)N2CCOCC2)sc1NC(=O)C1(O)CCC1` [Compound 199, 2-(1-hydroxycyclobutanecarboxamido)-5-(morpholinosulfonyl) thiophene-3-carboxamide] was 1970 nM; that for `NC(=O)c1cc(S(=O)(=O)N2CCOCC2)sc1NC(=O)C1(O)CCOCC1` [Compound 200, N-(3-carbamoyl-5-(morpholinosulfonyl)thiophen-2-yl)-4-hydroxytetrahydro-2H-pyran-4-carboxamide] was 3330 nM; that for `CC(C)c1cc(C(=O)Nc2sc(S(=O)(=O)N3CCOCC3)cc2C(N)=O)c(O)c(C(C)C)c1` [Compound 201, 2-(2-hydroxy-3,5-diisopropylbenzamido)-5-(morpholinosulfonyl) thiophene-3-carboxamide] was 3330 nM.
The compound `NC(=O)c1cc(S(=O)(=O)N2CCC(F)(F)CC2)sc1NC(=O)C1(O)CCOCC1` [Compound 202, N-(3-carbamoyl-5-(4,4-difluoropiperidin-1-ylsulfonyl)thiophen-2-yl)-4-hydroxytetrahydro-2H-pyran-4-carboxamide] had an EC50 at CFTR ΔF508 mutant [1] of 706 nM.
On CFTR ΔF508 mutant [1], `CC(C)(O)C(=O)Nc1sc(S(=O)(=O)N2CCOCC2)cc1C(N)=O` [Compound 203, 2-(2-hydroxy-2-methylpropanamido)-5-(morpholinosulfonyl) thiophene-3-carboxamide] registered a concentration for a half-maximal effect (EC50) of 3330 nM.
The same measure, in the same setting: the figure for `COCCCN(C)S(=O)(=O)c1cc(C(N)=O)c(NC(=O)c2cc[nH]n2)s1` [Compound 204, N-(3-carbamoyl-5-(N-(3-methoxypropyl)-N-methylsulfamoyl)thiophen-2-yl)-1H-pyrazole-3-carboxamide] is 218 nM.
On the same count and under the same terms, the value for `NC(=O)c1cc(S(=O)(=O)N2CC(F)C2)sc1NC(=O)c1cc[nH]n1` [Compound 205, N-(3-carbamoyl-5-(3-fluoroazetidin-1-ylsulfonyl)thiophen-2-yl)-1H-pyrazole-3-carboxamide] was 1150 nM; that for `NC(=O)c1cc(S(=O)(=O)N2CCC2)sc1NC(=O)c1cc[nH]n1` [Compound 208, N-(5-(azetidin-1-ylsulfonyl)-3-carbamoylthiophen-2-yl)-1H-pyrazole-3-carboxamide] was 573 nM.
Compound `CS(=O)(=O)c1cc(C(N)=O)c(NC(=O)c2ccccc2O)s1` [Compound 211, 2-(2-hydroxybenzamido)-5-(methylsulfonyl)thiophene-3-carboxamide] came in with a concentration giving a half-maximal response (EC50) on CFTR ΔF508 mutant [1] of 320 nM.

These data come from patent US9382254B2, “Compounds and pharmaceutical compositions thereof for the treatment of cystic fibrosis” (Galapagos NV, priority 2013, dated 2016).
